Measurements published in patent US20250188078A1, “SMALL MOLECULE INHIBITORS OF THE CRL4 UBIQUITIN LIGASE” (Cornell University, priority 2022, published 2025).
Like-named read-outs stand apart in the source and are kept apart here.

Experiments:
MCF7 breast cancer cells = assay: Cell killing in MCF7 cells (CellTiter Glo); format: cell-based; settings: Homo sapiens, MCF7, 192 h; Table 3, 0 to 20 μM compound, 8 days treatment
Protocol: (§1) CUL4A^high MDA-MB-468, CUL4^low (T47D), and MCF7 breast cancer cells were seeded in 96 well plates separately. Cells were treated with DMSO, or from 0 to 20 μM compound respectively. Replace with fresh medium and compounds every 48 hours. After 8 days treatment, cell viability was examined by CellTiter Glo kit (Promega #7570). First, transfer the appropriate volume (10 ml for Cat. #G7570) of CellTiter-Glo® Buffer into the amber bottle containing CellTiter-Glo® Substrate to reconstitute the lyophilized enzyme/substrate mixture. This forms the CellTiter-Glo® Reagent. Second, add CellTiter-Glo® Reagent in an equal volume (100 μl per well for 96-well plates) to all wells. Mix contents for 2 minutes on an orbital shaker to induce cell lysis. Incubate at room temperature for 15 minutes to stabilize luminescent signal. Then record luminescence. EC50 concentration was calculated by Prism 8 XY analysis nonlinear regression (curve fit-Log(inhibitor) vs response).

[1] = target: CUL4A-DDB1-BPB interaction (Homo sapiens (Human), UniProt Q16531); assay: AlphaLISA in vitro binding assay, CUL4A and DDB1-BPB binding; settings: inhibition of CUL4A and DDB1-BPB binding
CUL4A-DDB1-BPB interaction, sequence (Q16531 403-706): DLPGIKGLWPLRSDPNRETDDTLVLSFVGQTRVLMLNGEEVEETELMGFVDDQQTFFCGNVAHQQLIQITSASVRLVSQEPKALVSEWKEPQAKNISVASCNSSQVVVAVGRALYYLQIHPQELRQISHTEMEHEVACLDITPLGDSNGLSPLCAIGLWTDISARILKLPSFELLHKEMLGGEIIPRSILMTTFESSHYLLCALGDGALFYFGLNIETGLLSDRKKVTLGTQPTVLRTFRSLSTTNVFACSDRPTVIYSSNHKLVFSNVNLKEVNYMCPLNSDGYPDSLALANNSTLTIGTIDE
Procedure, shortened: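 Compound disruption of CUL4A binding to DDB1-BPB measured by AlphaLISA/AlphaScreen bead proximity in 384-well format. IC50 from nonlinear log(inhibitor)-vs-response curve fit.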

[2] = system: CUL4A^high MDA-MB-468 breast cancer cells; assay: Cell killing in CUL4-high MDA-MB-468 cells (CellTiter Glo); format: cell-based; settings: Homo sapiens, 8 days treatment
Procedure, shortened: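 Cells seeded, treated after 24 h with DMSO or compound (0 to 20 μM). Medium and compound replaced every 48 h over 8 days. Viability measured by CellTiter-Glo luminescence; EC50 (50% killing) from log(inhibitor) vs response nonlinear fit.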

DDB1-BPB = DDB1-BPB (Homo sapiens (Human), UniProt Q16531); assay: Microscale Thermophoresis (MST) binding to DDB1-BPB; settings: labeled DDB1-BPB, 25° C.
DDB1-BPB, sequence (Q16531 403-706): as above
Protocol: Kd represents dissociation constant, which measures the affinity of small molecule binding to the scaffold DDB1-BPB by Microscale Thermophoresis (MST) (see Table 1, column 9). MST experiments were performed on a Monolith NT 115 system (Nano Temper Technologies, Munich, Germany) using 100% LED and 60% IR-laser power (https://physiology.case.edu/media/eq manuals/eq_manual_nano-temper_mst_starting_guide.pdf, hereby incorporated by reference in its entirety for all purposes). The labeling of DDB1-BPB ([…]) was performed in labeling buffer with NHS-Red reactive dye (30 μM) (Nanotemper), which reacts efficiently with the primary amines of the proteins to form a stable dye protein conjugates. The labeling reaction was carried out at RT. A 16-point serial dilution (1:1) was prepared for compound at the final concentration ranged from 200 µM to 3 nM in PBS containing 0.05% tween. The samples were filled into Premium capillaries and measurements were conducted at 25° C. An equation implemented by the software MO-S002 MO Affinity Analysis, provided by the manufacturer, was used for fitting normalized fluorescence values at different concentrations of ligands.

[3] = system: CUL4A^low T47D breast cancer cells; assay: Cell killing in CUL4-low T47D cells (CellTiter Glo); format: cell-based; settings: Homo sapiens, 192 h, 8 days treatment
Protocol: EC50 indicates compound concentration can cause 50% cell killing in CUL4° ^w T47D cells (see Table 1, column 7). CUL4A^low T47D breast cancer cells were seeded in 96 well plate. […] Change fresh medium and compounds every 48 hours. After 8 days treatment, cell viability was examined by using CellTiter Glo kit (Promega #7570) following the manufacturer's guidelines (https://www.promega.com/-/media/files/resources/protocols/technical-bulletins/0/celltiter-glo-luminescent-cell-viability-assay-protocol.pdf?rev=0d95c232094b41daa06d0c110d1d916f&sc_lang=en, hereby incorporated by reference in its entirety for all purposes). EC50 concentration was calculated by Prism 8 XY analysis nonlinear regression (curve fit-Log(inhibitor) vs response). EC50 indicates cell killing potential in CUL4 low T47D cell line and the EC50 difference between CUL4^high and CUL4^low cells indicates the small molecule cause specific cell killing.
as §1, with “Cells were treated with DMSO, or from 0 to 20 μM compound respectively.” left out

IC50 [1]: 530 nM
Kd (DDB1-BPB): 720 nM
Compound: CN(c1ccc(-c2nc(C(=O)O)cc3c2[nH]c2cc(F)ccc23)cc1)S(=O)(=O)c1ccccc1 [PA1-3, 7-fluoro-1-(4-(N-methylphenylsulfonamido)phenyl)-9H-pyrido[3,4-b]indole-3-carboxylic acid]
EC50 (MCF7 breast cancer cells): 3.36 µM
EC50 ([2]; 192 h, MDA-MB-468 cells, read-out: EC50 CUL4-High Cells (cell killing)): 480 nM
EC50 ([2]; MDA-MB-468, 192 h, Table 3, 0 to 20 μM compound, read-out: EC50 OF cell killing, MDA-MB-468): 490 nM
EC50 ([3]; T47D cells, read-out: EC50 CUL4-Low Cells (cell killing)): 3.42 µM
EC50 ([3]; T47D, Table 3, 0 to 20 μM compound, read-out: EC50 OF cell killing, T47D): 3.42 µM
